The values that follow come from ChEMBL document CHEMBL1201862, “PubChem BioAssay data set” (2004).

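All cell lines were grown in 96-well plates and treated with compound for 48 hours. At the GI50, growth is halved.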 Calls of active or inactive are those of the source. Rule as the data show it: active = GI50 up to about 1.1 µM and inactive = higher. Where a SMILES comes first, the peptide text is derived from it. The star is where a group is joined. OSu = O=C1CCC(=O)N1O*; OBn = c1ccc(CO*)cc1; Bn = c1ccc(C*)cc1 Some results are limits rather than exact numbers.

What all share (assay): inhibition of tumour cell growth, NCI panel, 48 h
The test system of test [1] is 786-0.
Test [2] deals with A498.
Test [3] has as its system DU-145.
The test system of test [4] is EKVX.
The subject of test [5] is HT-29.
Test [6] has as its system K562.
The test system of test [7] is OVCAR-4.
In test [8] the test system is PC-3.
For test [9], the system named is RPMI-8226.
Test [10] has as its system RXF 393.
Test [11] relates to SK-MEL-5.
The subject of test [12] is SNB-75.
Test [13] has as its system SW-620.
Test [14] concerns T47D.
The test system of test [15] is U-251.
Test [16] relates to UACC-62.
Test [17] relates to UO-31.
Test [18] relates to BT-549.
For test [19], the system named is MCF7.
Test [20] deals with TK-10.

As to `c1csc(-c2nn3c(C45CC6CC(CC(C6)C4)C5)nnc3s2)c1`, the GI50 in test [1], in test [2], in [3], in test [4], in test [5] and in test [6] was > 100 µM (inactive) in each case. Further, the GI50 in test [7] is > 100 µM (inactive); in [8], > 100 µM (inactive); in [9] it was > 100 µM (inactive); in [10], > 100 µM (inactive); in test [11], 93.3 µM (inactive); in test [12], > 100 µM (inactive). The GI50 is > 100 µM (inactive) in test [13]; > 100 µM (inactive) in [14]; > 100 µM (inactive) in [15]; > 100 µM (inactive) in test [16]; 47.5 µM (inactive) in test [17].
Consider `N#CC(CC(=O)O)=C(c1ccccc1)c1ccccc1`, for which the GI50 in [1], in test [2], in test [18], in [4], in [5] and in [6] was > 100 µM (inactive) each time. Also, the GI50 in [19], in test [7], in test [8], in test [9], in [11] and in [12] was > 100 µM (inactive) each time. Also, the GI50 in test [13], in [20], in test [15], in test [16] and in test [17] was > 100 µM (inactive) each time.
`O=C(O)CCC(NC(=O)c1ccc(CNc2nc3ccccc3nc2C(=O)O)cc1)C(=O)O` (centres undefined): the GI50 in test [1], in [2], in test [3], in test [4], in test [5] and in test [6] was > 100 µM (inactive) throughout. For the same compound, the GI50 in test [19], in test [7], in [8], in test [9], in test [11] and in [12] was > 100 µM (inactive) each time. Also, the GI50 in test [13], in test [20], in test [15], in [16] and in [17] was > 100 µM (inactive) throughout.
Turning to `C/C(=N\NS(=O)(=O)c1ccc(C)cc1)C(CN(C)C)C(c1ccccc1)c1c(O)c2ccccc2oc1=O` (centres undefined), the GI50 in test [1], in test [2], in test [18], in test [3], in [4] and in test [5] was > 100 µM (inactive) each time. Moreover, the GI50 is > 84.5 µM (inactive) in test [6]; > 100 µM (inactive) in test [19]; > 100 µM (inactive) in test [7]; > 100 µM (inactive) in [8]; > 95.9 µM (inactive) in test [9]; 55.2 µM (inactive) in test [10]. Besides, the GI50 is > 100 µM (inactive) in [11]; > 51.9 µM (inactive) in test [12]; > 69.3 µM (inactive) in [13]; > 100 µM (inactive) in [20]; > 100 µM (inactive) in test [15]; > 86.3 µM (inactive) in test [16]. In addition, in [17], the GI50 was > 81.7 µM (inactive).
Regarding `CC(C)c1cc(C(C)C)c(Cl)c(Cl)c1O.CC(C)c1cc(Cl)c(O)c(C(C)C)c1Cl`, the GI50 in test [1] is 34.5 µM (inactive); in test [18], 19.9 µM (inactive); in [3] it was 35 µM (inactive); in test [4], 20.5 µM (inactive); in [5], 24 µM (inactive); in test [6], 16.9 µM (inactive). Besides, the GI50 in test [19] was 23.7 µM (inactive); in test [8] it was 19.5 µM (inactive); in test [9], 20.4 µM (inactive); in test [10], 12.5 µM (inactive); in test [11] it was 0.063 µM (active); in [13], 25.8 µM (inactive). In addition, the GI50 in [20] was 26.5 µM (inactive); in [15] it was 34.7 µM (inactive); in [16] it was 19.6 µM (inactive); in test [17], 23.2 µM (inactive).
`CCN(CC)CCn1c(C(C)(C)C)nc2ccccc21`: the GI50 in test [1] was 18.7 µM (inactive); in test [18], 36.1 µM (inactive); in test [3], > 100 µM (inactive); in test [4] it was > 100 µM (inactive); in test [5], > 100 µM (inactive); in test [6], > 100 µM (inactive). In addition, the GI50 was > 100 µM (inactive) in [19]; > 100 µM (inactive) in test [7]; > 100 µM (inactive) in test [8]; > 100 µM (inactive) in [9]; > 100 µM (inactive) in test [10]; > 10 µM (inactive) in test [11]. Further, the GI50 in [12] is > 100 µM (inactive); in test [13], > 100 µM (inactive); in [20] it was > 100 µM (inactive); in [15] it was 30.7 µM (inactive); in test [16], > 100 µM (inactive); in test [17], > 100 µM (inactive).
Take `Cc1ccc(S(=O)(=O)NC(=O)Nc2ccc(C(=O)O)c(O)c2)cc1`: the GI50 in test [1] was > 100 µM (inactive); in test [2], 68.2 µM (inactive); in [3] it was > 100 µM (inactive); in test [4], > 100 µM (inactive); in test [5] it was > 100 µM (inactive); in test [6], > 100 µM (inactive). Also, the GI50 in test [19], in test [7], in test [8], in test [9], in [10] and in test [11] was > 100 µM (inactive) each time. Further, the GI50 in test [12], in test [13], in test [20], in test [15], in test [16] and in [17] was > 100 µM (inactive) throughout.
On to `CC(C)CC(NC(=O)C(N)CCC(=O)OCc1ccccc1)C(=O)NC(COCc1ccccc1)C(=O)NC(Cc1ccccc1)C(=O)ON1C(=O)CCC1=O` (centres undefined) (H-E(OBn)LS(Bn)F-OSu; configuration not given here), for which the GI50 in [1] was 39.1 µM (inactive); in [3] it was 27.7 µM (inactive); in test [4], 32.1 µM (inactive); in test [5], 38.2 µM (inactive); in test [19], 27.4 µM (inactive); in [7], 27.8 µM (inactive). Further, the GI50 in test [8] is 24.5 µM (inactive); in test [9], 19.9 µM (inactive); in [10], 21.8 µM (inactive); in [11], 17.4 µM (inactive); in test [12], 35.7 µM (inactive); in test [13], 37.8 µM (inactive). For the same compound, the GI50 was 26.7 µM (inactive) in [20], 24.4 µM (inactive) in test [15], 26.1 µM (inactive) in test [16] and 23.6 µM (inactive) in test [17].
On to `CN1C(CC(O)c2ccccc2)CCCC1CC(O)(c1ccccc1)c1ccccc1` (centres undefined), for which the GI50 in test [1] was 15.7 µM (inactive); in [3], 20.8 µM (inactive); in [4] it was 26.4 µM (inactive); in [5], 12.1 µM (inactive); in [6], 29 µM (inactive); in test [19], 20.9 µM (inactive). The GI50 in test [8] was 18.2 µM (inactive); in [9], 17.1 µM (inactive); in test [10], 14.9 µM (inactive); in test [11], 16.6 µM (inactive); in test [12], 19.1 µM (inactive); in test [13], 19.4 µM (inactive). The GI50 in test [14] is 21 µM (inactive); in test [20] it was 18.5 µM (inactive); in [15] it was 15.1 µM (inactive); in [16], 21 µM (inactive); in test [17], 8.36 µM (inactive).
`CCC(=O)N(c1ccccc1)C(C)CN1CCC(O)(c2cccc(C(F)(F)F)c2)CC1` (centres undefined): the GI50 in test [1] is 18.5 µM (inactive); in [2] it was 26.8 µM (inactive); in test [4] it was 31.8 µM (inactive); in test [5], 13 µM (inactive); in [6], 20.9 µM (inactive); in [7], 33.3 µM (inactive). For the same compound, the GI50 in test [8] was 19.3 µM (inactive); in test [9], 18.7 µM (inactive); in test [10] it was > 100 µM (inactive); in [11], 20.6 µM (inactive); in [12], 32.8 µM (inactive); in test [13], > 100 µM (inactive). In addition, the GI50 in test [14] was 33.7 µM (inactive); in test [20], 25.1 µM (inactive); in test [15] it was 37.2 µM (inactive); in test [16], 22.1 µM (inactive); in test [17], 28.8 µM (inactive).
Consider `COc1ccc2c(c1)C/C(=C\c1ccc(O)c(OC)c1)C2=O`, for which the GI50 in test [1], in test [2], in test [18], in [4], in [5] and in [6] was > 100 µM (inactive) in each case. In addition, the GI50 in test [19] was > 100 µM (inactive); in test [7], > 100 µM (inactive); in test [8], > 100 µM (inactive); in test [9], > 100 µM (inactive); in [11] it was > 10 µM (inactive); in test [12], 46 µM (inactive). Besides, the GI50 in [13], in test [20], in [15], in test [16] and in test [17] was > 100 µM (inactive) each time.
